Measurements taken from patent US6083969A, “1,3- and 2,3-diarylcycloalkano and cycloalkeno pyrazoles as selective inhibitors of cyclooxygenase-2 and antiinflammatory agents” (Ortho-McNeil Pharaceutical, Inc., priority 1999, dated 2000).

What was measured:
[1] = biological target: T1, human prostaglandin H2 synthase type II (COX-2) (Homo sapiens, UniProt P35354); assay: Human prostaglandin H2 synthase type II (hCOX-2) homogenate assay (transfected COS-7 cells, PGE2 formation); type: biochemical; design: expressed in transfected cells; host or cells: COS-7 (African Green Monkey Kidney); conditions: for inhibition at 10 µM: read-out: P3: COX 2 Homogenized Cell % Inhibition; for IC50: read-out: P4: COX 2 Homogenized Cell IC50
T1 sequence (P35354 18-604): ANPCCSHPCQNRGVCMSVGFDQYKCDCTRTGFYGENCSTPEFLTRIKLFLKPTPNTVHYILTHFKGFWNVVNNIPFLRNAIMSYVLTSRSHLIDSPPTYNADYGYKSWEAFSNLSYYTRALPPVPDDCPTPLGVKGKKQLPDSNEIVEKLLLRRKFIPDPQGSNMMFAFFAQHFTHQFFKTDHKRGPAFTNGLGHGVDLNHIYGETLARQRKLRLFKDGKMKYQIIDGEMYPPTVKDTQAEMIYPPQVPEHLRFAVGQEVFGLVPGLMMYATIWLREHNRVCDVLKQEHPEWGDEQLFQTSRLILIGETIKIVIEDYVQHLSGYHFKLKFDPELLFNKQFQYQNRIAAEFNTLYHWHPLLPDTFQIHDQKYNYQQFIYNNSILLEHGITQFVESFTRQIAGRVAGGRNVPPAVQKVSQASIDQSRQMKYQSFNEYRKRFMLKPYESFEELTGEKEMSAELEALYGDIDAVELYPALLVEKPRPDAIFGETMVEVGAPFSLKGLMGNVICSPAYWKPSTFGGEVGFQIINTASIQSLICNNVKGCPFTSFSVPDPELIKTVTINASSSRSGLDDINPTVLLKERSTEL
Description: HUMAN PROSTAGLANDIN H2 SYNTHASE TYPE II (hCOX-2) HOMOGENATE ASSAY (SINGLE CONCENTRATION)
Procedures 3 and 4 were used to assess COX-2 activity in a homogenized cell assay as follows:
(§1) COS-7 (African Green Monkey Kidney) cells are maintained in a suitable medium, and are trypsinized and plated at a density of 1×10^6 cells/well of a 6 well plate prior to assay. Approximately 24 hours later, cells are transiently transfected with a plasmid containing the human COX-2 gene using the lipofectamine method. Two days later, the cell-free homogenate is prepared by subjecting the cells to a polytron followed by centrifugation at 9,000×g. COX activity, initiated by the addition of […] arachidonic acid to the 9,000×g supernatant, is monitored in the presence of vehicle or drug. Product (PGE2) formation is quantitated by radioimmunoassay. Activity, reported as percent inhibition of PGE2 produced, is calculated as follows: [formula]

[2] = biological target: T1, human prostaglandin H2 synthase type II (COX-2); assay: Human prostaglandin H2 synthase type II (COX-2) whole cell assay (ECV-304 cells, PGE2 by radioimmunoassay); type: cell-based; design: endogenous in cells; host or cells: ECV-304; conditions: for inhibition at 10 µM / inhibition at 3 µM: read-out: P1: COX 2 Whole Cell % Inhibition; for IC50: read-out: P2: COX 2 Whole Cell IC50; for inhibition at 3 µM: @3 μM (superscript a)
Description: HUMAN PROSTAGLANDIN H2 SYNTHASE TYPE II (COX-2) WHOLE CELL ASSAY (MULTIPLE CONCENTRATIONS)
Procedures 1 and 2 were used to determine the ability of the compounds to inhibit human prostaglandin H2 synthase type II (COX-2) in a whole cell assay at multiple concentrations as follows:
Approximately 28 h later, […] PMA and […] ionomycin (both final concentrations) are added to each well and incubated for an additional 16 h. Vehicle or test compounds in the amount of […] are incubated with the cells for five minutes prior to initiation of COX-2 enzyme activity by the addition of 30 μM arachidonic acid. Ten minutes later, an aliquot of the supernatant is withdrawn and the amount of PGE2 present quantitated by radioimmunoassay. Activity, reported as percent inhibition of PGE2 produced, is calculated as follows: [formula]

[3] = biological target: T2, human prostaglandin H2 synthase type I (COX-1) (Homo sapiens, UniProt P23219); assay: Human prostaglandin H2 synthase type I (COX-1) homogenate assay (transfected COS-7 cells, PGE2 formation); type: biochemical; conditions: COS-7 homogenate; for inhibition at 10 µM: read-out: P6: COX 1 Homogenized Cell % Inhibition
T2 construct: expressed in transfected cells; host or cells: COS-7 (African Green Monkey Kidney)
Description: HUMAN PROSTAGLANDIN H2 SYNTHASE--TYPE I (COX-1) HOMOGENATE ASSAY (SINGLE CONCENTRATION)
Procedures 6 and 7 were used to assess COX-1 activity in a homogenized cell assay as follows:
as §1, with “COX-1” for “COX-2”

COX-1 [4] = biological target: T3, COX-1 (Homo sapiens, UniProt P23219); assay: Human platelet thromboxane B2 production (via COX-1); type: cell-based; conditions: human platelets, TXB2 production; read-out: P5: COX 1 Human Platelet IC50
T3 construct: Remove the platelet-rich plasma (PRP) and dilute the PRP 1:20 with 0.9% NaCl; endogenous in cells; host or cells: human platelets (platelet-rich plasma of one volunteer)
Description: HUMAN […] THROMBOXANE B2 PRODUCTION (via COX-1)
Procedure 5 was used to determine thromboxane B2 (TXB2) production (via COX-1) in human platelets as follows:
Draw blood from one volunteer into heparinized tubes then spin at RT for 15 to 20 minutes at 1,000 RPM. Remove the platelet-rich plasma (PRP) and dilute the PRP 1:20 with 0.9% NaCl containing 14.4U heparin/mL. Add 180 μL of the diluted PRP to each well of a 96-well plate and incubate at 37° C. for 5 minutes. Then add 20 μL vehicle (HBSS with 1% DMSO) or drug and incubate for 15 minutes at 37° C. Add 10 μl calcium ionophore and incubate 15 minutes at 37° C. Stop the reaction on slush ice for 5 minutes and assay supernatants immediately for TXB2 production via RIA or EIA.
Prepare all drugs at 10 mM in DMSO by diluting the drug in HBSS at a 1.100 ratio with 1% DMSO to 100 μM. Add 20 μl to PRP (1:10 ratio) to obtain 10 μM final concentration. The calcium ionophore is prepared by using 7 mg/mL free acid calcium ionophore in DMSO, which is warmed until the ionophore goes into solution. Just prior to use, dilute the solution 1:25 with HBSS.

COX-1 [5] = biological target: T3, COX-1; assay: as above; type: cell-based; conditions: @3 μM (superscript b); human platelets, TXB2 production; read-out: P5: COX 1 Human Platelet % Inhibition

T2 sequence (P23219 24-599): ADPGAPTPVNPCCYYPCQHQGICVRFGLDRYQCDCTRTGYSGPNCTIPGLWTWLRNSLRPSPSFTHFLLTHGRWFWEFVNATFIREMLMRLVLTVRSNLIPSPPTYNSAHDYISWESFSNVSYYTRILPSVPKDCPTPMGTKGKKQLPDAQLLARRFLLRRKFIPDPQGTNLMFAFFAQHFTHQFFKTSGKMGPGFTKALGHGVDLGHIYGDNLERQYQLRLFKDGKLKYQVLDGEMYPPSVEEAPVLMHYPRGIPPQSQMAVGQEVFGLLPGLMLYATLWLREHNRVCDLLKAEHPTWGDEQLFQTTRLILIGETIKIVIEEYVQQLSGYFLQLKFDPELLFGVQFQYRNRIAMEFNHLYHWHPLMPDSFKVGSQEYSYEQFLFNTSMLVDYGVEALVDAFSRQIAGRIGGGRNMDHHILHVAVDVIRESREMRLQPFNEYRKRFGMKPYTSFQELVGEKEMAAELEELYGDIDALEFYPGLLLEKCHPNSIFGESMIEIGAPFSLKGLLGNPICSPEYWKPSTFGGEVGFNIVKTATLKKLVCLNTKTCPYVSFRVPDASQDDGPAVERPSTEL
T3 sequence (P23219 24-599): as above

inhibition at 10 µM ([1]; @10 μM, COS-7 homogenate) [%]	IC50 [2] [nM]	inhibition at 10 µM [3] [%]	IC50 (COX-1 [4]) [nM]	inhibition at 3 µM [2] [%]	inhibition at 3 µM (COX-1 [5]) [%]	Compound	also measured
6	> 10000	32	> 10000			CS(=O)(=O)c1ccc(-n2nc(-c3ccc(F)cc3)c3c2C=CCC3)cc1 [Example 5a, 3-(4-Fluorophenyl)-4,5-dihydro-1-(4-methylsulfonylphenyl)-1H-indazole]	inhibition at 10 µM [2]: 9%
92	1560	25				COc1ccc(-n2nc(-c3ccc(Cl)cc3)c3c2CCCCC3)cc1 [Example 8, 3-(4-Chlorophenyl)-1-(4-methoxyphenyl)-cycloheptano-[1,2-d]-pyrazole]	IC50 ([1]; COS-7 homogenate): 380 nM; IC50 ([3]; read-out: P7: COX 1 Homogenized Cell IC50): 5300 nM
	2510	64	> 10000			COc1ccc(-n2nc(-c3ccc(F)cc3)c3c2CCCCC3)cc1 [Example 9, 3-(4-Fluorophenyl)-1-(4-methoxyphenyl)-cycloheptano-[1,2-d]-pyrazole]	IC50 ([1]; COS-7 homogenate): 2500 nM
26		24	10000			CS(=O)(=O)c1ccc(-n2nc(-c3ccc(Cl)cc3)c3c2CCCCC3)cc1 [Example 10, 3-(4-Chlorophenyl)-1-(4-methylsulfonylphenyl)-cycloheptano-[1,2-d]-pyrazole]	inhibition at 10 µM [2]: 5%
				66	6	CS(=O)(=O)c1ccc(C(=O)C2CC(=O)CCC2=O)cc1 (centres unmarked) [Example 29f]	
	610				24	CS(=O)(=O)c1ccc(-n2nc3c(c2-c2ccc(C(F)(F)F)cc2)CCC=C3)cc1 [Example 32c]	
				87	35	CCOc1ccc2c(-c3ccc(F)cc3)nn(-c3ccc(S(C)(=O)=O)cc3)c2c1 [Example 32j]	
				29	22	Fc1ccc(-n2nc(-c3ccc(Cl)cc3)c3ccc4[nH]c5ccc(F)cc5c4c32)cc1 [Example 32k]	

Compound	inhibition at 10 µM ([1]; @10 μM, COS-7 homogenate) [%]	IC50 [2] [nM]	inhibition at 10 µM [3] [%]	IC50 (COX-1 [4]) [nM]	inhibition at 3 µM [2] [%]	inhibition at 3 µM (COX-1 [5]) [%]	also measured
Cc1ccc(-n2nc(-c3ccc(Cl)cc3)c3c2CCCCC3)cc1 [Example 11, 3-(4-Chlorophenyl)-1-(4-methylphenyl)-cycloheptano-[1,2-d]-pyrazole]		640	74				inhibition at 10 µM [1]: 40%
